We go through 28 compounds from patent US10758534B2 (Vertex Pharmaceuticals Incorporated, priority 2014, dated 2020).

In the experiment the target is T1, F508del (Homo sapiens, UniProt P13569, DEL508-508).
T1 construct: expressed in transfected cells
T1 sequence (P13569 with tags, fused parts or gaps DEL508-508): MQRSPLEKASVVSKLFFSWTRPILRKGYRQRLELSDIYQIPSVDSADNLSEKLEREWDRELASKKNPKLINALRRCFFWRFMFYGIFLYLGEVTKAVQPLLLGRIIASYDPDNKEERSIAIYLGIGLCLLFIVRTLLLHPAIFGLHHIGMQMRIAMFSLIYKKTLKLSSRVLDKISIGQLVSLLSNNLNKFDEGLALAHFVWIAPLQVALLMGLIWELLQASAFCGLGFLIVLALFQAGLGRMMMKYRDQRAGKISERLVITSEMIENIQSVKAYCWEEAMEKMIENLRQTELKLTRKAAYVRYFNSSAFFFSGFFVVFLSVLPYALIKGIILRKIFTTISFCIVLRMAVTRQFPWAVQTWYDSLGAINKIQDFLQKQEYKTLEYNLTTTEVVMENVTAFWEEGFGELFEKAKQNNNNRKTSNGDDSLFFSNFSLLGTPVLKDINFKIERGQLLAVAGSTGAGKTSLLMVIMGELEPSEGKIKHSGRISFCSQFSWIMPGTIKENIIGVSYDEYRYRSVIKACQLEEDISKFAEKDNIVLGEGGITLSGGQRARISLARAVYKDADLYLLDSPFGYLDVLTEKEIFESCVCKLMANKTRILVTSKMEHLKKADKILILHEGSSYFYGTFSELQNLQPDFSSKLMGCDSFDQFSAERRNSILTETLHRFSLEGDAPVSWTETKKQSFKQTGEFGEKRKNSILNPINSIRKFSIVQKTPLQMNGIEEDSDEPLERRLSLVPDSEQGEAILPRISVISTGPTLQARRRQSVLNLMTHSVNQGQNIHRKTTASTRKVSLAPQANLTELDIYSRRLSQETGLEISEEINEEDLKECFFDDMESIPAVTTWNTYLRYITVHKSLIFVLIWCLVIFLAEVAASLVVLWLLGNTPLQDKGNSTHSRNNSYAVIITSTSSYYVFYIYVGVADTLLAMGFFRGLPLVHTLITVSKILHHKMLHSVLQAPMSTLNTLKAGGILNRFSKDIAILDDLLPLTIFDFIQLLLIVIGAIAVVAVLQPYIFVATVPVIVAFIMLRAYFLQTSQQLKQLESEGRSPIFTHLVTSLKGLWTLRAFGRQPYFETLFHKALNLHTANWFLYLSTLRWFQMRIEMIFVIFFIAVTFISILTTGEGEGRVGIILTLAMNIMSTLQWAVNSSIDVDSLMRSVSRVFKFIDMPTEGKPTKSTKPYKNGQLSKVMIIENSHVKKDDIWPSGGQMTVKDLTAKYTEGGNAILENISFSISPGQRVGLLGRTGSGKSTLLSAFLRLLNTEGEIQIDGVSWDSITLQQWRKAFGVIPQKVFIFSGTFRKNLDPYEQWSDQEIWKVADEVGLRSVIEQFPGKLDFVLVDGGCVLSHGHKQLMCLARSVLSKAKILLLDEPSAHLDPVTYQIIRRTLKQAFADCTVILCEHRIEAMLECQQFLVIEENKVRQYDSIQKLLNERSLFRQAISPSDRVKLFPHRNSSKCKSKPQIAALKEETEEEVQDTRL
In words: Protocol 1: membrane potential optical assay (FLIPR III, voltage sensing dye), identification of potentiator compounds. The class given is cell-based. The conditions noted are these: Table 3, compounds of Table 1. In outline: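 NIH3T3 F508del cells, 27° C × 24 hrs; compound/DMSO pretreat → redistribution dye load → single forskolin addition with Cl⁻ gradient (gluconate-substituted bath, HEPES pH 7.4). FLIPR III membrane-potential fluorescence read.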
Consider `COc1ncc(-c2ccc(C(=O)NS(=O)(=O)c3cccc(N)n3)c(Oc3c(C)cc(C)cc3C)n2)cc1Cl` [Compound 1332, N-[(6-amino-2-pyridyl)sulfonyl]-6-(5-chloro-6-methoxy-3-pyridyl)-2-(2,4,6-trimethylphenoxy)pyridine-3-carboxamide], for which the EC30 result is listed as “+++ (“+++” means <3 uM)”.
In the case of `CC(C)COc1cc(-c2ccc(C(=O)NS(=O)(=O)c3ccc[nH]c3=O)c(N3[C@H](C)CC[C@@H]3C)n2)ccc1Cl` [Compound 902, 6-(4-chloro-3-isobutoxy-phenyl)-2-[(2S,5R)-2,5-dimethylpyrrolidin-1-yl]-N-[(2-oxo-1H-pyridin-3-yl)sulfonyl]pyridine-3-carboxamide], the EC30 entry is “+++ (“+++” means <3 uM)”.
The entry for `CCOc1cccc2c1CN(Cc1c(C)cccc1C)C2(C)C(=O)NS(=O)(=O)c1cccc(N)n1` (stereo not shown) [Compound 1498, N-[(6-amino-2-pyridyl)sulfonyl]-2-[(2,6-dimethylphenyl)methyl]-4-ethoxy-1-methyl-isoindoline-1-carboxamide] is “+++ (“+++” means <3 uM)”.
Take `Cc1cc(C)c(Oc2nc(-c3cccc4[nH]ccc34)ccc2C(=O)NS(=O)(=O)c2cccc(N)n2)c(C)c1` [Compound 977, N-[(6-amino-2-pyridyl)sulfonyl]-6-(1H-indol-4-yl)-2-(2,4,6-trimethylphenoxy)pyridine-3-carboxamide]: the EC30 result was “++ (“++” means between 3 uM and 10 uM)”.
Take `CC(C)COc1cc(F)cc(-c2ccc(C(=O)NS(=O)(=O)c3ccn[nH]3)c(N3CCC(OCC4CC4)CC3)n2)c1` [Compound 1088, 2-[4-(cyclopropylmethoxy)-1-piperidyl]-6-(3-fluoro-5-isobutoxy-phenyl)-N-(1H-pyrazol-5-ylsulfonyl)pyridine-3-carboxamide]: the EC30 result was “+++ (“+++” means <3 uM)”.
Take `Cc1cc(C)c(Oc2nc(N3CCOCC3)ccc2C(=O)NS(=O)(=O)c2cccc(N)n2)c(C)c1` [Compound 966, N-[(6-amino-2-pyridyl)sulfonyl]-6-morpholino-2-(2,4,6-trimethylphenoxy)pyridine-3-carboxamide]: the EC30 result was “+ (“+” means greater than 10 uM)”.
To `Cc1cc(C)c(Oc2nc(-c3ccccn3)ccc2C(=O)NS(=O)(=O)c2cccc(N)n2)c(C)c1` [Compound 1278, N-[(6-amino-2-pyridyl)sulfonyl]-6-(2-pyridyl)-2-(2,4,6-trimethylphenoxy)pyridine-3-carboxamide] belongs “+ (“+” means greater than 10 uM)”; to `CC(C)COc1cc(F)cc(-c2nc(N3C[C@@H](C)CC3(C)C)ccc2C(=O)NS(=O)(=O)c2cccc(N)n2)c1` [Compound 1409, N-[(6-amino-2-pyridyl)sulfonyl]-2-(3-fluoro-5-isobutoxy-phenyl)-6-[(4S)-2,2,4-trimethylpyrrolidin-1-yl]pyridine-3-carboxamide], “+++ (“+++” means <3 uM)”.
Turning to `Cn1ccc2c(Cn3nc(C(C)(C)C)cc3C(=O)NS(=O)(=O)c3cccc(N)c3)cccc21` [Compound 927, N-(3-aminophenyl)sulfonyl-5-tert-butyl-2-[(1-methylindol-4-yl)methyl]pyrazole-3-carboxamide], the EC30 entry was “++ (“++” means between 3 uM and 10 uM)”.
With `Cc1cc(C)c(CN2Cc3ccccc3C2(C)C(=O)NS(=O)(=O)c2ccc[nH]c2=O)c(C)c1` (stereo not shown) [Compound 1237, 1-methyl-N-[(2-oxo-1H-pyridin-3-yl)sulfonyl]-2-[(2,4,6-trimethylphenyl)methyl]isoindoline-1-carboxamide], the EC30 result was “++ (“++” means between 3 uM and 10 uM)”.
With `CNc1cccc(S(=O)(=O)NC(=O)c2ccc(-c3ccccc3)nc2Oc2c(C)cc(C)cc2C)n1` [Compound 1032, N-[[6-(methylamino)-2-pyridyl]sulfonyl]-6-phenyl-2-(2,4,6-trimethylphenoxy)pyridine-3-carboxamide], the EC30 entry was “+++ (“+++” means <3 uM)”.
As for `Cc1cc(C)c(Oc2nc(C3(C)CC3)ccc2C(=O)NS(=O)(=O)c2ccc(N)cc2)c(C)c1` [Compound 1297, N-(4-aminophenyl)sulfonyl-6-(1-methylcyclopropyl)-2-(2,4,6-trimethylphenoxy)pyridine-3-carboxamide], the EC30 entry was “+++ (“+++” means <3 uM)”.
As for `Cc1cc(C)c(Oc2nc(C3CCC(C)(C)CC3)ccc2C(=O)NS(=O)(=O)c2ccc[nH]c2=O)c(C)c1` [Compound 1091, 6-(4,4-dimethylcyclohexyl)-N-[(2-oxo-1H-pyridin-3-yl)sulfonyl]-2-(2,4,6-trimethylphenoxy)pyridine-3-carboxamide], the EC30 result is “+++ (“+++” means <3 uM)”.
As to `Cc1cc(C)c(Oc2ncc(C3(C)CC3)cc2C(=O)NS(=O)(=O)c2cccc(N)n2)c(C)c1` [Compound 854, N-[(6-amino-2-pyridyl)sulfonyl]-5-(1-methylcyclopropyl)-2-(2,4,6-trimethylphenoxy)pyridine-3-carboxamide], the EC30 entry is “++ (“++” means between 3 uM and 10 uM)”.
For the compound `Cc1cccc(C)c1Oc1nc(C(C)(C)C)ccc1C(=O)NS(=O)(=O)c1cccc(N)n1` [Compound 1243, N-[(6-amino-2-pyridyl)sulfonyl]-6-tert-butyl-2-(2,6-dimethylphenoxy)pyridine-3-carboxamide], the EC30 entry is listed as “+++ (“+++” means <3 uM)”.
As to `Cc1cc(C)c(Oc2nc(-c3cccc(OC(C)C)c3)ccc2C(=O)NS(=O)(=O)c2ccc[nH]c2=O)c(C)c1` [Compound 1188, 6-(3-isopropoxyphenyl)-N-[(2-oxo-1H-pyridin-3-yl)sulfonyl]-2-(2,4,6-trimethylphenoxy)pyridine-3-carboxamide], the EC30 entry is “+++ (“+++” means <3 uM)”.
In the case of `Cc1cc(F)ccc1-c1ccc(C(=O)NS(=O)(=O)c2cccc(N)n2)c(N2CC(C)CC2(C)C)n1` (stereo not shown) [Compound 822, N-[(6-amino-2-pyridyl)sulfonyl]-6-(4-fluoro-2-methyl-phenyl)-2-(2,2,4-trimethylpyrrolidin-1-yl)pyridine-3-carboxamide], the EC30 result was “+++ (“+++” means <3 uM)”.
To `CC1CN(c2ncc(-c3ccccc3)cc2C(=O)NS(=O)(=O)c2cccc(N)n2)C(C)(C)C1` (stereo not shown) [Compound 1384, N-[(6-amino-2-pyridyl)sulfonyl]-5-phenyl-2-(2,2,4-trimethylpyrrolidin-1-yl)pyridine-3-carboxamide] belongs “+++ (“+++” means <3 uM)”; to `CC(C)Oc1ccc(-c2ccc(C(=O)NS(=O)(=O)c3cccc(N)n3)c(N3C[C@H](C)C[C@H](C)C3)n2)cn1` [Compound 1145, N-[(6-amino-2-pyridyl)sulfonyl]-2-[(3R,5S)-3,5-dimethyl-1-piperidyl]-6-(6-isopropoxy-3-pyridyl)pyridine-3-carboxamide], “+++ (“+++” means <3 uM)”; to `CCCC/C=C/c1cc(C(=O)NS(=O)(=O)c2cccc(N)n2)c(N2C[C@@H](C)CC2(C)C)nc1C(C)(C)C` [Compound 1377, N-[(6-amino-2-pyridyl)sulfonyl]-6-tert-butyl-5-[(E)-hex-1-enyl]-2-[(4S)-2,2,4-trimethylpyrrolidin-1-yl]pyridine-3-carboxamide], “+++ (“+++” means <3 uM)”.
Turning to `CC[C@]1(C)C[C@H](C)CN1c1nc(-c2cc(F)cc(OCC(C)C)c2)ccc1C(=O)NS(=O)(=O)c1cccc(N)n1` (single isomer, unassigned) [Compound 1817, N-[(6-amino-2-pyridyl)sulfonyl]-2-(2-ethyl-2,4-dimethyl-pyrrolidin-1-yl)-6-(3-fluoro-5-isobutoxy-phenyl)pyridine-3-carboxamide], the EC30 result was “+++ (“+++” means <3 uM)”.
For the compound `Cc1cc(C)c(Oc2nc(-c3ccccc3)ccc2C(=O)NS(=O)(=O)c2cccc(NCCN)n2)c(C)c1` [Compound 1027, N-[[6-(2-aminoethylamino)-2-pyridyl]sulfonyl]-6-phenyl-2-(2,4,6-trimethylphenoxy)pyridine-3-carboxamide], the EC30 entry was “++ (“++” means between 3 uM and 10 uM)”.
In the case of `COC1CC=C(c2cnc(N3CC(C)CC3(C)C)c(C(=O)NS(=O)(=O)c3cccc(N)n3)c2)CC1` (stereo not shown) [Compound 1920, N-[(6-amino-2-pyridyl)sulfonyl]-5-(4-methoxycyclohexen-1-yl)-2-(2,2,4-trimethylpyrrolidin-1-yl)pyridine-3-carboxamide], the EC30 result was “++ (“++” means between 3 uM and 10 uM)”.
`CC(C)COc1cc(F)cc(-c2ccc(C(=O)NS(=O)(=O)C3CC3)c(N3C[C@@H](C)CC3(C)C)n2)c1` [Compound 1525, N-cyclopropylsulfonyl-6-(3-fluoro-5-isobutoxy-phenyl)-2-[(4S)-2,2,4-trimethylpyrrolidin-1-yl]pyridine-3-carboxamide]: the EC30 entry is reported as “+++ (“+++” means <3 uM)”.
Turning to `CC(C)Oc1ccc(-c2ccc(C(=O)NS(=O)(=O)c3cccc(N)n3)c(N3Cc4ccccc4C3)n2)cn1` [Compound 1072, N-[(6-amino-2-pyridyl)sulfonyl]-2-isoindolin-2-yl-6-(6-isopropoxy-3-pyridyl)pyridine-3-carboxamide], the EC30 entry was “++ (“++” means between 3 uM and 10 uM)”.
For the compound `CC(C)c1ccc(-c2ccc(C(=O)NS(=O)(=O)c3cccc(N)n3)c(N3C[C@H](C)CC3(C)C)n2)cc1` [Compound 890, N-[(6-amino-2-pyridyl)sulfonyl]-6-(4-isopropylphenyl)-2-[(4R)-2,2,4-trimethylpyrrolidin-1-yl]pyridine-3-carboxamide], the EC30 entry is on record as “+++ (“+++” means <3 uM)”.
To `CC1(C)C(CC2CC2)CCN1c1ncccc1C(=O)NS(=O)(=O)c1cccc(N)n1` (stereo not shown) [Compound 1794, N-[(6-amino-2-pyridyl)sulfonyl]-2-[3-(cyclopropylmethyl)-2,2-dimethyl-pyrrolidin-1-yl]pyridine-3-carboxamide] belongs “++ (“++” means between 3 uM and 10 uM)”.
Consider `CCOc1cccc(Oc2cccc(S(=O)(=O)NC(=O)c3cccnc3N3CC(C)CC3(C)C)n2)c1` (stereo not shown) [Compound 1828, N—[[6-(3-ethoxyphenoxy)-2-pyridyl]sulfonyl]-2-(2,2,4-trimethylpyrrolidin-1-yl)pyridine-3-carboxamide], for which the EC30 entry is recorded as “+++ (“+++” means <3 uM)”.
